Test results taken from the NIST ThermoML archive (doi:10.1016/j.jct.2012.02.018).

Conditions: Liquid; for mass density: Vibrating tube method; for viscosity: Concentric cylinders viscometry

CCCC[n+]1ccc(C)cc1.F[B-](F)(F)F [1-butyl-4-methylpyridinium tetrafluoroborate]
Conditions	mass density [kg/m3]	viscosity [mPa·s]
278.16 K, 101.33 kPa	1202.41	–
283.13 K, 2389 kPa	1200.77	–
283.14 K, 99418 kPa	1237.54	–
283.15 K, 101.33 kPa	–	765.72
283.15 K, 60042 kPa	1223.77	–
283.15 K, 79648 kPa	1230.82	–
283.15 K, 89923 kPa	1234.36	–
283.16 K, 49953 kPa	1219.99	–
283.16 K, 69924 kPa	1227.37	–
283.17 K, 101.33 kPa	1198.9	–
283.17 K, 20156 kPa	1208.22	–
283.17 K, 29957 kPa	1212.19	–
283.17 K, 39808 kPa	1216.08	–
283.2 K, 5533 kPa	1202.11	–
283.2 K, 10148 kPa	1204.06	–
293.13 K, 2593 kPa	1194.15	–
293.14 K, 99354 kPa	1231.77	–
293.15 K, 101.33 kPa	–	338.59
293.15 K, 69958 kPa	1221.46	–
293.15 K, 79965 kPa	1225.08	–
293.15 K, 90001 kPa	1228.6	–
293.16 K, 101.33 kPa	1191.79	–
293.16 K, 5220 kPa	1195.31	–
293.16 K, 49933 kPa	1213.87	–
293.16 K, 59929 kPa	1217.71	–
293.17 K, 10236 kPa	1197.5	–
293.17 K, 19941 kPa	1201.67	–
293.17 K, 29914 kPa	1205.84	–
293.17 K, 39693 kPa	1209.82	–
298.13 K, 101.33 kPa	1188.41	–
298.15 K, 101.33 kPa	–	236.97
298.15 K, 1003 kPa	1190.06	–
298.15 K, 5005 kPa	1191.86	–
298.15 K, 10002 kPa	1194.09	–
298.15 K, 19998 kPa	1198.45	–
298.15 K, 29945 kPa	1202.67	–
298.15 K, 39923 kPa	1206.79	–
298.15 K, 49991 kPa	1210.83	–
298.15 K, 60002 kPa	1214.72	–
298.15 K, 70001 kPa	1218.49	–
298.15 K, 79994 kPa	1222.14	–
298.15 K, 90002 kPa	1225.68	–
298.15 K, 99998 kPa	1229.1	–
303.15 K, 101.33 kPa	–	171.04
313.13 K, 101.33 kPa	1178.11	–
313.15 K, 101.33 kPa	–	96.18
313.15 K, 59740 kPa	1205.47	–
313.16 K, 2707 kPa	1180.63	–
313.16 K, 20303 kPa	1188.77	–
313.16 K, 29913 kPa	1193.03	–
313.16 K, 49943 kPa	1201.51	–
313.16 K, 69933 kPa	1209.44	–
313.16 K, 89952 kPa	1216.83	–
313.16 K, 99473 kPa	1220.15	–
313.17 K, 5339 kPa	1181.88	–
313.17 K, 10173 kPa	1184.14	–
313.17 K, 39937 kPa	1197.34	–
313.17 K, 79710 kPa	1213.11	–
323.15 K, 101.33 kPa	–	58.53
333.13 K, 1547 kPa	1166.3	–
333.13 K, 39448 kPa	1184.41	–
333.14 K, 101.33 kPa	1164.59	–
333.14 K, 49914 kPa	1188.99	–
333.14 K, 60043 kPa	1193.26	–
333.15 K, 101.33 kPa	–	38.29
333.15 K, 5146 kPa	1168.12	–
333.15 K, 29917 kPa	1180.08	–
333.15 K, 69942 kPa	1197.26	–
333.16 K, 19866 kPa	1175.35	–
333.16 K, 79463 kPa	1200.96	–
333.16 K, 89996 kPa	1204.89	–
333.17 K, 9837 kPa	1170.46	–
333.17 K, 99595 kPa	1208.3	–
343.14 K, 101.33 kPa	1157.92	–
343.15 K, 101.33 kPa	–	26.48
353.13 K, 59133 kPa	1180.36	–
353.14 K, 2498 kPa	1152.85	–
353.14 K, 5035 kPa	1154.22	–
353.14 K, 9690 kPa	1156.69	–
353.14 K, 20367 kPa	1162.21	–
353.14 K, 29942 kPa	1166.97	–
353.14 K, 39870 kPa	1171.71	–
353.14 K, 49991 kPa	1176.35	–
353.14 K, 70001 kPa	1184.93	–
353.15 K, 101.33 kPa	–	19.17
353.15 K, 89993 kPa	1192.71	–
353.16 K, 79945 kPa	1188.9	–
353.16 K, 98529 kPa	1195.8	–
363.15 K, 101.33 kPa	–	14.41
373.13 K, 59930 kPa	1168.03	–
373.14 K, 2866 kPa	1138.93	–
373.14 K, 40385 kPa	1158.91	–
373.14 K, 49993 kPa	1163.5	–
373.14 K, 69984 kPa	1172.37	–
373.15 K, 101.33 kPa	–	11.19
373.15 K, 5031 kPa	1140.17	–
373.15 K, 29936 kPa	1153.67	–
373.15 K, 79614 kPa	1176.31	–
373.15 K, 90002 kPa	1180.33	–
373.15 K, 99124 kPa	1183.64	–
373.16 K, 9772 kPa	1142.85	–
373.17 K, 20168 kPa	1148.55	–
393.14 K, 99382 kPa	1171.13	–
393.15 K, 10459 kPa	1129.2	–
393.15 K, 20029 kPa	1134.74	–
393.15 K, 90001 kPa	1167.72	–
393.16 K, 2068 kPa	1124.13	–
393.16 K, 5306 kPa	1126.11	–
393.16 K, 29942 kPa	1140.22	–
393.17 K, 39803 kPa	1145.4	–
393.17 K, 49942 kPa	1150.46	–
393.17 K, 70000 kPa	1159.64	–
393.17 K, 80173 kPa	1163.89	–
393.18 K, 59764 kPa	1155.09	–
